Source: patent publication US20190151312A1, “HEPARAN SULFATE BIOSYNTHESIS INHIBITORS FOR THE TREATMENT OF DISEASES” (BioMarin Pharmaceutical Inc., priority 2014, published 2019)

System: GM01896 cells (MPS II dermal fibroblasts)
Assay: Assay 1: MPS cellular assay, MPS II (heparan sulfate disaccharide biomarkers by LC-MS)
Format: cell-based, human
Conditions: Assay 1 for MPS II, heparan sulfate disaccharide biomarkers (I2a4, I2a6, I2S0 and/or I2S6), read-out: IC50 Range
Outline: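 Heparan sulfate disaccharide biomarkers quantified by LC-MS after heparinase I/II/III digestion and isotopic aniline labelling, using GM01896 MPS II fibroblasts exposed to compound (at or below 30 μM, 4-21 days). Values given as IC50 by curve fitting; cell viability checked with alamar blue or ATP.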

`Cc1nn(C)c2cc(-c3cc(Nc4ccc5nn(C)nc5c4)nc(N4CCOCC4)n3)ccc12` [[6-(1,3-dimethyl(1H-indazol-6-yl))-2-morpholin-4-ylpyrimidin-4-yl](2-methyl(2-hydrobenzotriazol-5-yl))amine] was tested. Which IC50 did it give?
Its IC50 is 1000 to 5000 nM.

Same assay, conditions: Homo sapiens, Fibroblast, Assay 1 for MPS II, heparan sulfate disaccharide biomarkers (I2a4, I2a6, I2S0 and/or I2S6), read-out: IC50 Range

Which IC50 does the source give for `Cn1ncc2ccc(-c3cc(Nc4ccc(-c5nnc(C6CC6)[nH]5)cc4)nc(N4CCOCC4)n3)cc21` [[4-(5-cyclopropyl(4H-1,2,4-triazol-3-yl))phenyl][6-(1-methyl(1H-indazol-6-yl))-2-morpholin-4-ylpyrimidin-4-yl]amine] here?
The IC50 was under 500 nM.

`Cn1nc(CCN2CCOCC2)c2ccc(-c3cc(Nc4ccc(-c5nnc(C6CC6)[nH]5)cc4)nc(N4CCOCC4)n3)cc21` [[4-(5-cyclopropyl(4H-1,2,4-triazol-3-yl))phenyl]{6-[1-methyl-3-(2-morpholin-4-ylethyl)(1H-indazol-6-yl)]-2-morpholin-4-ylpyrimidin-4-yl}amine] was tested. Which IC50 did it give?
The IC50 was under 500 nM.

With `Cc1nc(-c2ccc(Nc3cc(-c4ccc5cnn(C)c5c4)nc(N4CCOCC4)n3)cc2)no1` [[4-(5-methyl(1,2,4-oxadiazol-3-yl))phenyl][6-(1-methyl(1H-indazol-6-yl))-2-morpholin-4-ylpyrimidin-4-yl]amine] as the compound, how does the IC50 read?
Its IC50 is 1000 to 5000 nM.

For `Cc1nnc(-c2ccc(Nc3cc(-c4cnc5cnn(C)c5c4)nc(N4CCOCC4)n3)cc2)[nH]1` [[4-(5-methyl(4H-1,2,4-triazol-3-yl))phenyl][6-(1-methylpyrazolo[4,5-b]pyridin-6-yl)-2-morpholin-4-ylpyrimidin-4-yl]amine], which IC50 is on record?
Its IC50 is under 500 nM.

Which IC50 does the source give for `Cc1nnc(-c2ccc(Nc3cc(-c4ccc5cnn(CCN6CCOCC6)c5c4)nc(N4CCOCC4)n3)cc2)[nH]1` [[4-(5-methyl(4H-1,2,4-triazol-3-yl))phenyl]{2-morpholin-4-yl-6-[1-(2-morpholin-4-ylethyl)(1H-indazol-6-yl)]pyrimidin-4-yl}amine] here?
The IC50 was under 500 nM.

With `Cc1nnc(-c2ccc(Nc3cc(-c4ccc5c(CCN6CCOCC6)nn(C)c5c4)nc(N4CCOCC4)n3)cc2)[nH]1` [[4-(5-methyl(4H-1,2,4-triazol-3-yl))phenyl]{6-[1-methyl-3-(2-morpholin-4-ylethyl)(1H-indazol-6-yl)]-2-morpholin-4-ylpyrimidin-4-yl}amine] as the compound, how does the IC50 read?
Its IC50 is under 500 nM.

With `Cc1nnc(-c2ccc(Nc3cc(-c4ccc5c(C)nn(CCN6CCOCC6)c5c4)nc(N4CCOCC4)n3)cc2)[nH]1` [[4-(5-methyl(4H-1,2,4-triazol-3-yl))phenyl]{6-[3-methyl-1-(2-morpholin-4-ylethyl)(1H-indazol-6-yl)]-2-morpholin-4-ylpyrimidin-4-yl}amine] as the compound, how does the IC50 read?
The IC50 was under 500 nM.

Which IC50 does the source give for `CNC(=O)c1ccc(Nc2cc(-c3ccc4cnn(CCOC)c4c3)nc(N3CCOCC3)n2)cc1` [[4-({6-[1-(2-methoxyethyl)(1H-indazol-6-yl)]-2-morpholin-4-ylpyrimidin-4-yl}amino)phenyl]-N-methylcarboxamide] here?
Its IC50 is under 500 nM.

How did the IC50 turn out when `CNC(=O)c1ccc(Nc2cc(-c3ccc4ncn(CCOC)c4c3)nc(N3CCOCC3)n2)cc1` [[4-({6-[1-(2-methoxyethyl)benzimidazol-6-yl]-2-morpholin-4-ylpyrimidin-4-yl}amino)phenyl]-N-methylcarboxamide] was run?
The IC50 was under 500 nM.

Which IC50 does the source give for `CNC(=O)c1ccc(Nc2cc(-c3ccc4cnn(CC5CC5)c4c3)nc(N3CCOCC3)n2)cc1` [[4-({6-[1-(cyclopropylmethyl)(1H-indazol-6-yl)]-2-morpholin-4-ylpyrimidin-4-yl}amino)phenyl]-N-methylcarboxamide] here?
The IC50 was under 500 nM.

How did the IC50 turn out when `CNC(=O)c1ccc(Nc2cc(-c3ccc4nc(C)n(CC5CC5)c4c3)nc(N3CCOCC3)n2)cc1` [[4-({6-[1-(cyclopropylmethyl)-2-methylbenzimidazol-6-yl]-2-morpholin-4-ylpyrimidin-4-yl}amino)phenyl]-N-methylcarboxamide] was run?
Its IC50 is under 500 nM.

`CNC(=O)c1ccc(Nc2cc(-c3ccc4c(c3)ncn4CC3CC3)nc(N3CCOCC3)n2)cc1` [[4-({6-[1-(cyclopropylmethyl)benzimidazol-5-yl]-2-morpholin-4-ylpyrimidin-4-yl}amino)phenyl]-N-methylcarboxamide] was tested. Which IC50 did it give?
The IC50 was under 500 nM.

How did the IC50 turn out when `CNC(=O)c1ccc(Nc2cc(-c3ccc4ncn(CC5CC5)c4c3)nc(N3CCOCC3)n2)cc1` [[4-({6-[1-(cyclopropylmethyl)benzimidazol-6-yl]-2-morpholin-4-ylpyrimidin-4-yl}amino)phenyl]-N-methylcarboxamide] was run?
Its IC50 is under 500 nM.

For `CNC(=O)c1ccc(Nc2cc(-c3ccc4c(c3)ncn4CC3CC3)nc(N3CCOCC3)n2)cn1` [[5-({6-[1-(cyclopropylmethyl)benzimidazol-5-yl]-2-morpholin-4-ylpyrimidin-4-yl}amino)(2-pyridyl)]-N-methylcarboxamide], which IC50 is on record?
The IC50 was 500 to 1000 nM.

How did the IC50 turn out when `CNC(=O)c1ccc(Nc2cc(-c3ccc4ncn(CC5CC5)c4c3)nc(N3CCOCC3)n2)cn1` [[5-({6-[1-(cyclopropylmethyl)benzimidazol-6-yl]-2-morpholin-4-ylpyrimidin-4-yl}amino)(2-pyridyl)]-N-methylcarboxamide] was run?
The IC50 was under 500 nM.

For `CNC(=O)c1ccc(Nc2cc(-c3ccc4nn(CC5CC5)cc4c3)nc(N3CCOCC3)n2)cn1` [[5-({6-[2-(cyclopropylmethyl)(2H-indazol-5-yl)]-2-morpholin-4-ylpyrimidin-4-yl}amino)(2-pyridyl)]-N-methylcarboxamide], which IC50 is on record?
The IC50 was 1000 to 5000 nM.

`CNC(=O)c1ccc(Nc2cc(-c3ccc4cn(CC5CC5)nc4c3)nc(N3CCOCC3)n2)cn1` [[5-({6-[2-(cyclopropylmethyl)(2H-indazol-6-yl)]-2-morpholin-4-ylpyrimidin-4-yl}amino)(2-pyridyl)]-N-methylcarboxamide] was tested. Which IC50 did it give?
Its IC50 is 1000 to 5000 nM.

With `Cc1nc2ccc(-c3cc(Nc4ccc(Cl)cc4)nc(N4CCOCC4)n3)cc2n1C` [[6-(1,2-dimethylbenzimidazol-6-yl)-2-morpholin-4-ylpyrimidin-4-yl](4-chlorophenyl)amine] as the compound, how does the IC50 read?
The IC50 was 500 to 1000 nM.

With `Cc1nn(C)c2cc(-c3cc(Nc4ccc5c(C)c(C)n(C)c5c4)nc(N4CCOCC4)n3)ccc12` [[6-(1,3-dimethyl(1H-indazol-6-yl))-2-morpholin-4-ylpyrimidin-4-yl](1,2,3-trimethylindol-6-yl)amine] as the compound, how does the IC50 read?
The IC50 was 1000 to 5000 nM.

`Cc1nn(C)c2cc(-c3cc(Nc4ccc5cc(C)n(C)c5c4)nc(N4CCOCC4)n3)ccc12` [[6-(1,3-dimethyl(1H-indazol-6-yl))-2-morpholin-4-ylpyrimidin-4-yl](1,2-dimethylindol-6-yl)amine] was tested. Which IC50 did it give?
Its IC50 is 500 to 1000 nM.

How did the IC50 turn out when `CCn1ccc2ccc(Nc3cc(-c4ccc5c(C)nn(C)c5c4)nc(N4CCOCC4)n3)cc21` [[6-(1,3-dimethyl(1H-indazol-6-yl))-2-morpholin-4-ylpyrimidin-4-yl](1-ethylindol-6-yl)amine] was run?
Its IC50 is 1000 to 5000 nM.

Which IC50 does the source give for `Cc1nn(C)c2cc(-c3cc(Nc4ccc5ncn(C)c5c4)nc(N4CCOCC4)n3)ccc12` [[6-(1,3-dimethyl(1H-indazol-6-yl))-2-morpholin-4-ylpyrimidin-4-yl](1-methylbenzimidazol-6-yl)amine] here?
The IC50 was 1000 to 5000 nM.

For `Cc1nn(C)c2cc(-c3cc(Nc4ccc5c(ccn5C)c4)nc(N4CCOCC4)n3)ccc12` [[6-(1,3-dimethyl(1H-indazol-6-yl))-2-morpholin-4-ylpyrimidin-4-yl](1-methylindol-5-yl)amine], which IC50 is on record?
The IC50 was 500 to 1000 nM.

How did the IC50 turn out when `Cc1nn(C)c2cc(-c3cc(Nc4ccc5ccn(C)c5c4)nc(N4CCOCC4)n3)ccc12` [[6-(1,3-dimethyl(1H-indazol-6-yl))-2-morpholin-4-ylpyrimidin-4-yl](1-methylindol-6-yl)amine] was run?
The IC50 was under 500 nM.

`Cc1nn(C)c2cc(-c3cc(Nc4ccc5nn(C)cc5c4)nc(N4CCOCC4)n3)ccc12` [[6-(1,3-dimethyl(1H-indazol-6-yl))-2-morpholin-4-ylpyrimidin-4-yl](2-methyl(2H-indazol-5-yl))amine] was tested. Which IC50 did it give?
The IC50 was 1000 to 5000 nM.

`Cc1nn(C)c2cc(-c3cc(Nc4ccc5cn(C)nc5c4)nc(N4CCOCC4)n3)ccc12` [[6-(1,3-dimethyl(1H-indazol-6-yl))-2-morpholin-4-ylpyrimidin-4-yl](2-methyl(2H-indazol-6-yl))amine] was tested. Which IC50 did it give?
The IC50 was 1000 to 5000 nM.

With `Cc1nn(C)c2cc(-c3cc(Nc4ccc(-n5nccn5)cc4)nc(N4CCOCC4)n3)ccc12` [[6-(1,3-dimethyl(1H-indazol-6-yl))-2-morpholin-4-ylpyrimidin-4-yl](4-(1,2,3-triazol-2-yl)phenyl)amine] as the compound, how does the IC50 read?
The IC50 was under 500 nM.

Which IC50 does the source give for `Cc1nn(C)c2cc(-c3cc(Nc4ccc(-c5ncon5)cc4)nc(N4CCOCC4)n3)ccc12` [[6-(1,3-dimethyl(1H-indazol-6-yl))-2-morpholin-4-ylpyrimidin-4-yl](4-(1,2,4-oxadiazol-3-yl)phenyl)amine] here?
Its IC50 is 500 to 1000 nM.

How did the IC50 turn out when `Cc1nn(C)c2cc(-c3cc(Nc4ccc(-c5ncno5)cc4)nc(N4CCOCC4)n3)ccc12` [[6-(1,3-dimethyl(1H-indazol-6-yl))-2-morpholin-4-ylpyrimidin-4-yl](4-(1,2,4-oxadiazol-5-yl)phenyl)amine] was run?
The IC50 was 1000 to 5000 nM.

For `Cc1nn(C)c2cc(-c3cc(Nc4ccc(-c5ncco5)cc4)nc(N4CCOCC4)n3)ccc12` [[6-(1,3-dimethyl(1H-indazol-6-yl))-2-morpholin-4-ylpyrimidin-4-yl](4-(1,3-oxazol-2-yl)phenyl)amine], which IC50 is on record?
The IC50 was 500 to 1000 nM.

`Cc1nn(C)c2cc(-c3cc(Nc4ccc(-c5cocn5)cc4)nc(N4CCOCC4)n3)ccc12` [[6-(1,3-dimethyl(1H-indazol-6-yl))-2-morpholin-4-ylpyrimidin-4-yl](4-(1,3-oxazol-4-yl)phenyl)amine] was tested. Which IC50 did it give?
Its IC50 is under 500 nM.

Which IC50 does the source give for `Cc1nn(C)c2cc(-c3cc(Nc4ccc(C5=NCCO5)cc4)nc(N4CCOCC4)n3)ccc12` [[6-(1,3-dimethyl(1H-indazol-6-yl))-2-morpholin-4-ylpyrimidin-4-yl](4-(1,3-oxazolin-2-yl)phenyl)amine] here?
Its IC50 is 1000 to 5000 nM.

With `Cc1nn(C)c2cc(-c3cc(Nc4cc(Cl)c5ccn(C)c5c4)nc(N4CCOCC4)n3)ccc12` [[6-(1,3-dimethyl(1H-indazol-6-yl))-2-morpholin-4-ylpyrimidin-4-yl](4-chloro-1-methylindol-6-yl)amine] as the compound, how does the IC50 read?
Its IC50 is 1000 to 5000 nM.

`Cc1nn(C)c2cc(-c3cc(Nc4ccc(Cl)cc4)nc(N4CCOCC4)n3)ccc12` [[6-(1,3-dimethyl(1H-indazol-6-yl))-2-morpholin-4-ylpyrimidin-4-yl](4-chlorophenyl)amine] was tested. Which IC50 did it give?
The IC50 was 500 to 1000 nM.
